This note sets out measurements from patent publication US10857153B2, “Pyrimidine compounds containing acidic groups” (Apros Therapeutics, Inc., priority 2018, dated 2020).

One series deals with T1, human TLR7 (Homo sapiens, UniProt Q9NYK1).
T1 construct: host or cells: HEK293 (HEK-Blue™ hTLR7)
T1 sequence (Q9NYK1 27-1049): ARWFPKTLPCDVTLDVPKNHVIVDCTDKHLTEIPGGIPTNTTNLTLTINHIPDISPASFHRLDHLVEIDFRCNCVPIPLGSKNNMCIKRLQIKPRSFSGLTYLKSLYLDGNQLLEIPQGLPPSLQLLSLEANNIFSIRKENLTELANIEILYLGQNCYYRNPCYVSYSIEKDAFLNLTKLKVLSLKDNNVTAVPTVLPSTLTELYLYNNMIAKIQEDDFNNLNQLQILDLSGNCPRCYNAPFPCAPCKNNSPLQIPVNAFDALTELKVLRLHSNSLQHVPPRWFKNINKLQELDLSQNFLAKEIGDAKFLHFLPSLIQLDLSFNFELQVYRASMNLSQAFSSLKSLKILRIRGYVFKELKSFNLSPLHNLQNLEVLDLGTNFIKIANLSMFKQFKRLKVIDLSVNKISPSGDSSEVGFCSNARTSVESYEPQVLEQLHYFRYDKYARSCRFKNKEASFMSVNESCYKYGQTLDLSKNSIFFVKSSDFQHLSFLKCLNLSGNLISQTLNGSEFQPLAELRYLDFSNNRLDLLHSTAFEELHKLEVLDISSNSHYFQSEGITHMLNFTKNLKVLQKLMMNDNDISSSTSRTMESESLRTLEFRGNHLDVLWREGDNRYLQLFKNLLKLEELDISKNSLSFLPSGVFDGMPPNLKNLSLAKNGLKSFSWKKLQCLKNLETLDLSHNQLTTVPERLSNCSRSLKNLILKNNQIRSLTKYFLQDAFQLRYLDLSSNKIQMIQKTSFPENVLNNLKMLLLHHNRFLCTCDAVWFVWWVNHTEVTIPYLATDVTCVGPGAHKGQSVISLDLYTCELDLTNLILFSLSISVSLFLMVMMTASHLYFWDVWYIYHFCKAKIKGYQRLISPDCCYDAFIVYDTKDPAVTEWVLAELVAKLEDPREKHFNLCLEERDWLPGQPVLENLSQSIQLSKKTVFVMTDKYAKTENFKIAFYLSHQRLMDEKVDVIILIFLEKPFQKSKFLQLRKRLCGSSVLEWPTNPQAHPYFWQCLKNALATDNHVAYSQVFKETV
In words: HEK-TLR7 assay (HEK-Blue hTLR7 cells, SEAP reporter). The series is classed as cell-based. Conditions: 16 h. The source says: HEK-Blue™ TLR7 cells were purchased from Invivogen (San Diego, Calif.). The following description was taken from the product information sheet.
“HEK-Blue™ hTLR7 cells are designed for studying the stimulation of human TLR7 (hTLR7) by monitoring the activation of NF-kB. HEK-Blue™ hTLR7 cells were obtained by co-transfection of the hTLR7 gene and an optimized secreted embryonic alkaline phosphatase (SEAP) reporter gene into HEK293 cells. The SEAP reporter gene is placed under the control of the IFN-b minimal promoter fused to five NF-kB and AP-1-binding sites. Stimulation with a TLR7 ligand activates NF-kB and AP-1 which induce the production of SEAP, which is detected by the HEK-Blue™ Detection cell culture medium.”
A typical assay protocol involved the following steps: • 1. Cells were cultured according to the product information sheet. • 2. 10 mM compound stock in DMSO were first diluted to 3 mM and then 3-fold serially diluted using DMSO to afford a 10-pt dilution. • 3. 3 μl of the diluted DMSO were added to 57 μl HEK-Blue™ Detection media for a further 20-fold dilution. • 4. 10 μl of the diluted compound in assay media were added into 40 μl cell culture (in HEK-Blue™ Detection media) in 384-well plate. Final cell concentration=8,000 cells per well. • 5. The plates were incubated at 37° C. in 5% CO2 for 16 h. SEAP was determined using a spectrophotometer at 620-655 nm.

For a further series, the system named is TLR7. Briefly: Pharmacodynamic experiment: serum IP-10 after intranasal dosing. The series is classed as in vivo. Conditions: BALB/c mice, 60 micrograms intranasally, 5 hours. As to the method: IP-10 is a biomarker of TLR7 target activation. Higher production levels of IP-10 is an indication of higher target engagement in vivo. In this study, 3 BALB/c mice per group were dosed intranasally with 60 micrograms of Compound 1B, 2B, 3B, Compound 50 or AZD8848. The test compounds were formulated as a 1 mg/mL solution in 0.5% carboxy methycellulose. Animals were sacrificed after 5 hours. Serum IP-10 concentrations were measured using a commercial ELISA kit purchased from Meso Scale Discovery.

For series [1], the system named is CT26 cells stably expressing luciferase. Briefly: CT26 metastatic lung cancer model. Conditions: for mean bioluminescence (tumor burden) versus anti-PD-L1 or anti-PD-L1 with Compound 50 or AZD8848: in combination with anti-PD-L1, for more than 20 days after injection of tumor cells; for median survival time: intranasal, in combination with anti-PD-L1, twice a week, 8 doses.
Method: To establish a lung cancer model, 5e5 CT26 cells stably expressing luciferase (Imanis Life Sciences) were injected intravenously into female Balb/c mice on Day 0. On Day 4 post challenge, mice were anesthetized and subjected to whole body bioluminescent imaging (IVIS; Perkin Elmer) to determine tumor burden and in vivo location. Mice with detectable lung tumors were enrolled into the study and randomized such that the average bioluminescence and variance is equivalent amongst all of the study groups. Animals were dosed twice a week for a total of 8 doses with the indicated treatments, and imaged weekly to determine total tumor burden over the course of the treatment.
The known TLR7 compound AZD8848 was used as a comparator and administered in combination with anti-PD-L1 to the mice. […] Each treatment group contained 10 mice.

Series [2] in a line: Formulation preparation and solubility examination. In kind it is physicochemical. Conditions: 1 mg/mL in 0.5% carboxy methycellulose in water, pH 6-7. As to the method: The resulting formulations were vortexed and stored at 4° C. before dosing.

On to `CCCC[C@@H](CCO)Nc1nc(N)nc(CCC(=O)O)c1Cc1cc(CC(=O)O)ccc1OC` [Compound 2B, (S)-3-(2-amino-5-(5-(carboxymethyl)-2-methoxybenzyl) -6-((1-hydroxyheptan-3-yl)amino)pyrimidin-4-yl)propanoic acid], for which, at human TLR7, the EC50 amounted to 270 nM. For the same compound, the “mean serum IP-10 concentration” value in the series on TLR7 is ~150 pg/mL. Besides, in series [1], the “mean bioluminescence (tumor burden) versus anti-PD-L1 or anti-PD-L1 with Compound 50 or AZD8848” value was “lower” and the median survival time is given as 32 days.

Take `CCCC[C@@H](CCS(C)(=O)=O)Nc1nc(N)nc(CCC(=O)O)c1Cc1cc(Cc2nn[nH]n2)ccc1OC` [Compound 1B, (S)-3-(5-(5-((2H-tetrazol-5-yl)methyl)-2-methoxybenzyl)-2-amino-6-((1-(methyl-sulfonyl)heptan-3-yl)amino)pyrimidin-4-yl)propanoic acid]: at human TLR7, the EC50 turned out to be 230 nM. The “mean serum IP-10 concentration” value in the series with TLR7 is on record as “about 700 pg/mL”. Besides, in series [1], the “mean bioluminescence (tumor burden) versus anti-PD-L1 or anti-PD-L1 with Compound 50 or AZD8848” value is recorded as “lower” and the median survival time is given as 36 days.

Consider `CCCC[C@@H](CCS(C)(=O)=O)Nc1nc(N)nc(CCC(=O)O)c1Cc1cc(CC(=O)O)ccc1OC` [Compound 50, reference compound], for which the EC50 on human TLR7 turned out to be 260 nM. Moreover, the “appearance of formulation (solubility)” value in series [2] is listed as “clear”. In addition, the “mean serum IP-10 concentration” value with TLR7 is on record as 125 pg/mL. In series [1], the median survival time is given as 29 days.

As to `CCCCOc1nc(N)c2[nH]c(=O)n(CCCN(CCCN3CCOCC3)Cc3cccc(CC(=O)OC)c3)c2n1` [AZD8848, reference compound], the EC50 at human TLR7 is 37 nM. In addition, in series [2], the “appearance of formulation (solubility)” value is “turbid suspension”. Further, the “mean serum IP-10 concentration” value with TLR7 was found to be 96 pg/mL. The median survival time in series [1] was 23 days.

In turn, `CCCC[C@@H](CCO)Nc1nc(N)nc(CCC(=O)O)c1Cc1cc(Cc2nn[nH]n2)ccc1OC` [Compound 3B, (S)-3-(5-(5-((2H-tetrazol-5-yl)methyl)-2-methoxybenzyl)-2-amino-6-((1-hydroxyheptan-3-yl)amino)pyrimidin-4-yl)propanoic acid] gave an EC50 at human TLR7 of 270 nM. The “mean serum IP-10 concentration” value with TLR7 is listed as ~1300 pg/mL. In addition, in series [1], the “mean bioluminescence (tumor burden) versus anti-PD-L1 or anti-PD-L1 with Compound 50 or AZD8848” value is “lower” and the median survival time was 36 days.

As a reminder, the EC50 is the concentration needed to bring the measured effect to its halfway point.
